These molecules were tested on HIO80 cells (assay: Cell proliferation assay (alamarBlue), control cell line HIO80). Conditions: 48 h incubation.
Format: cell-based, human
Method: The cell line COV362 (CVCL_2,420) was originally established from a high-grade ovarian serous adenocarcinoma from a metastatic site in the pleural effusion ([van den Berg-Bakker et al., 1993]) and was purchased from ECACC (ECACC 07071910) as p37 on 13 October 2017. The growth medium for COV362 cells was DMEM (D5546; Sigma–Aldrich GmbH), with 10% FBS (F9665; Sigma–Aldrich GmbH) and 2 mM L-glutamine (G7513; Sigma–Aldrich GmbH). COV362 cells in passages p37 + 12 to p37 + 17 were used in this study and seeded at a concentration of 3.5 cells/ml × 10^4 cells/ml for proliferation studies and at a concentration of 5.3 × 10^5/ml for migration studies. The cell line OVCAR-4 (CVCL_1,627) is a high-grade serous ovarian adenocarcinoma cell line established from a patient refractory to cisplatin ([Johnson et al., 1997]). The cell line was purchased from Merck on 19 March 2021. The growth medium for OVCAR-4 cells was RPMI-1640 (Sigma R5586) supplemented with 2 mM glutamine (G7513; Sigma–Aldrich GmbH), 10% FBS (F9665; Sigma–Aldrich GmbH), 0.25 μg/ml insulin (I9278; Sigma–Aldrich GmbH). OVCAR-4 cells in passages p+6 to p+15 were used in this study and seeded at a concentration of 6 cells/ml × 10^4 cells/ml. The control cell line HIO80 (CVCL_E274) was obtained from Andrew K. Godwin (University of Kansas Medical Center, Kansas, United States) on 20 October 2017 as p+72. It was originally established from ovarian surface epithelium ([Yang et al., 2004]). HIO80 cells were grown in RPMI medium (R5886, Sigma–Aldrich GmbH) supplemented with 10% FBS (F9665; Sigma–Aldrich GmbH), 2 mm L-glutamine (G7513; Sigma–Aldrich GmbH) and 6.6 µg/ml insulin (I9278; Sigma–Aldrich GmbH). HIO80 cells in passages p72 + 8 to p72 + 19 were used in this study and seeded at a concentration of 2 × 10^4 cells/mL. HIO80 in passage +10 was authenticated by short tandem repeats (STR) profiling performed by ATCC on 22 February 2019. Cells were grown in a humidified atmosphere containing 5% CO2 at 37°C. All cell lines were negative for mycoplasma infection which was periodically tested using MycoAlert^TM mycoplasma detection kit (Lonza, Basel, Switzerland).
The effect of ruthenium compounds on the proliferation of ovarian cancer cell lines COV362 and OVCAR-4 and the control cell line HIO80 was analyzed using the cell proliferation reagent alamarBlue HS (A50101; Thermo Fisher Scientific) following the manufacturer’s instructions.
Cells were seeded in 96-well plates in 100 µL of medium and allowed to adhere and grow for 24 h. […] Cisplatin and carboplatin purchased from Sigma–Aldrich GmbH (cat. number: PHR1624, lot: LRAB7778) and (cat. number: C2538, lot: MKCK1243) were dissolved in sterile water. Working solutions were prepared by a serial dilution of stock solutions with a culture medium. After the initial incubation, cells were treated with ruthenium complexes, cisplatin, and carboplatin. A range of final concentrations between 0.001 and 300 µM were used for ruthenium complexes and cisplatin, and between 0.001 µM and 1 mM for carboplatin. After 48 h of incubation, plates were incubated with 20 µL of alamarBlue. After 4 h absorbance was measured with a BioTek microplate spectrophotometer at 570 nm, with the reference wavelength set at 600 nm. First, the background value of a well containing the active substance without cells was subtracted, then the average values for duplicates/triplicates were calculated. The absorbance of the well containing only untreated cells was used as a normalization control. The half-maximal […] concentration (IC50) was determined for all ruthenium complexes with a growth-inhibiting effect on cells by constructing a dose-response curve (Graph Pad Prism, Version 8.0).

Row | SMILES | IC50
1 | Cc1ccc(C(C)C)cc1.O=C(C=C([O][Ru][Cl])c1ccc(I)cc1)C(F)(F)F [Compound 1] | 41.9 µM
2 | C1N2CN3CN1CP(C2)C3.Cc1ccc(C(C)C)cc1.F[P-](F)(F)(F)(F)F.O=C(C=C([O][Ru+])c1ccc(I)cc1)C(F)(F)F [Compound 2] | 92 µM
3 | CN(C)c1ccc(C(=CC(=O)C(F)(F)F)[O][Ru][Cl])cc1.Cc1ccc(C(C)C)cc1 [Compound 3, (η^6-p-cymene)chlorido(4,4,4-trifluoro-1-(4-(dimethylamino)phenyl)-1,3-butandionato)ruthenium(II)] | 34.7 µM
4 | Cc1ccc(C(C)C)cc1.O=C(C=C([O][Ru][Cl])c1ccc2c(c1)OCO2)C(F)(F)F [Compound 5] | 60.5 µM
5 | C1N2CN3CN1CP(C2)C3.Cc1ccc(C(C)C)cc1.F[P-](F)(F)(F)(F)F.O=C(C=C([O][Ru+])c1ccc2c(c1)OCO2)C(F)(F)F [Compound 6] | 187 µM
6 | Cc1ccc(C(C)C)cc1.[Cl-].[O-]c1c(I)cc(Cl)c2cccnc12.[Ru+2] [Compound 7] | 14.3 µM
7 | C1N2CN3CN1CP(C2)C3.Cc1ccc(C(C)C)cc1.F[P-](F)(F)(F)(F)F.[O-]c1c(I)cc(Cl)c2cccnc12.[Ru+2] [Compound 8] | 32.5 µM
8 | Cc1ccc(C(C)C)cc1.O=[N+]([O-])c1ccc([O][Ru][Cl])c2ncccc12 [Compound 9, (η ^6-p-Cymene) (nitroxolinato)chloridoruthenium (II)] | 12.8 µM
9 | C1N2CN3CN1CP(C2)C3.Cc1ccc(C(C)C)cc1.F[P-](F)(F)(F)(F)F.O=[N+]([O-])c1ccc([O][Ru+])c2ncccc12 [Compound 10, (η ^6-p-cymene)(nitroxolinato)(pta)ruthenium(II) hexafluorophosphate] | > 200 µM

Source: article PMC9403717, “Ruthenium complexes show potent inhibition of AKR1C1, AKR1C2, and AKR1C3 enzymes and anti-proliferative action against chemoresistant ovarian cancer cell line” (Frontiers in Pharmacology, 2022)
